From patent publication US9302999B2, “Substituted triazoles as herbicides” (E. I. DU PONT DE NEMOURS AND COMPANY, priority 2012, dated 2016)

Assays:
Assay type in all cases: in vivo
[1] = tested on: barnyardgrass (Echinochloa crus-galli); test: Test A pre-/postemergence: barnyardgrass
Method in brief: (§1)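 Whole-plant greenhouse assay in loam/sand. Preemergence directed soil spray plus simultaneous postemergence spray (one- to two-leaf stage, 2–10 cm). Rated visually ~10 days later, 0 = no effect, 100 = complete control.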

[2] = tested on: crabgrass, large (large crabgrass, Digitaria sanguinalis); test: Test A pre-/postemergence: crabgrass, large
Method in brief: as §1

[3] = tested on: foxtail, giant (giant foxtail, Setaria faberii); test: Test A pre-/postemergence: foxtail, giant
Method in brief: as §1

[4] = tested on: morningglory (Ipomoea spp.); test: Test A pre-/postemergence: morningglory
Method in brief: as §1

[5] = tested on: pigweed (Amaranthus retroflexus); test: Test A pre-/postemergence: pigweed
Method in brief: as §1

[6] = tested on: velvetleaf (Abutilon theophrasti); test: Test A pre-/postemergence: velvetleaf
Method in brief: as §1

[7] = tested on: wheat (Triticum aestivum); test: Test A pre-/postemergence: wheat
Method in brief: as §1

corn (Zea mays) = test: Test A pre-/postemergence: corn
Method in brief: as §1

rice (Oryza sativa) = test: Test B flooded paddy: rice; conditions: Flood, applied to paddy water at 2-leaf stage, visually evaluated after 13 to 15 days
Method in brief: (§2)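 Each compound is applied to the floodwater of pots holding 2-leaf seedlings, water standing 3 cm over the soil throughout. Plants stay in a greenhouse 13 to 15 days before visual scoring against controls from 0 (no effect) to 100 (complete control).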

[8] = tested on: sedge, umbrella (small-flower umbrella sedge Cyperus difformis); test: Test B flooded paddy: sedge, umbrella; conditions: Flood, applied to paddy water at 2-leaf stage, visually evaluated after 13 to 15 days
Method in brief: as §2

[9] = tested on: ducksalad (Heteranthera limosa); test: Test B flooded paddy: ducksalad; conditions: Flood, applied to paddy water at 2-leaf stage, visually evaluated after 13 to 15 days
Method in brief: as §2

[10] = tested on: barnyardgrass (Echinochloa crus-galli); test: Test B flooded paddy: barnyardgrass; conditions: Flood, applied to paddy water at 2-leaf stage, visually evaluated after 13 to 15 days
Method in brief: as §2

[11] = Postemergence, 125 g ai/ha, 0 to 100 scale, 0 is no effect, 100 is complete control
[12] = Postemergence, 500 g ai/ha, visual rating on 0 to 100 scale (0 no effect, 100 complete control), approximately ten days
[13] = Preemergence, 125 g ai/ha, 0 to 100 scale (0 no effect, 100 complete control)
[14] = Preemergence, 500 g ai/ha, 0 to 100 scale, 0 is no effect, 100 is complete control
[15] = Postemergence, 500 g ai/ha, 0 to 100 scale, 0 is no effect, 100 is complete control
[16] = Preemergence, 125 g ai/ha, 0 to 100 scale where 0 is no effect and 100 is complete control
[17] = Preemergence, 500 g ai/ha, 0 to 100 scale (0 no effect, 100 complete control)

## Cc1nn(-c2ccccc2)nc1C(=O)c1cccc(C(F)(F)F)c1 [Compound 43]
[1]; [11]
  Barnyardgrass plant response rating: 10
[1]; [12]
  Barnyardgrass plant response rating: 20
[1]; [13]
  Plant response rating, Barnyardgrass: 0
[1]; [14]
  Plant response rating, Barnyardgrass: 20
[2]; [11]
  Crabgrass, Large plant response rating: 30
[2]; [12]
  Crabgrass, Large plant response rating: 40
[2]; [13]
  Plant response rating, Crabgrass, Large: 30
[2]; [14]
  Plant response rating, Crabgrass, Large: 80
[3]; [11]
  Foxtail, Giant plant response rating: 20
[3]; [12]
  Foxtail, Giant plant response rating: 30
[3]; [13]
  Plant response rating, Foxtail, Giant: 20
[3]; [14]
  Plant response rating, Foxtail, Giant: 90
[4]; [11]
  Morningglory plant response rating: 0
[4]; [12]
  Morningglory plant response rating: 40
[5]; [11]
  Pigweed plant response rating: 50
[5]; [12]
  Pigweed plant response rating: 70
[5]; [13]
  Plant response rating, Pigweed: 50
[5]; [14]
  Plant response rating, Pigweed: 60
[6]; [11]
  Velvetleaf plant response rating: 20
[6]; [12]
  Velvetleaf plant response rating: 20
[6]; [13]
  Plant response rating, Velvetleaf: 0
[6]; [14]
  Plant response rating, Velvetleaf: 0
[7]; [11]
  Wheat plant response rating: 0
[7]; [12]
  Wheat plant response rating: 30
[7]; [13]
  Plant response rating, Wheat: 0
[7]; [14]
  Plant response rating, Wheat: 0
Corn (Zea mays); [11]
  Corn plant response rating: 20
Corn (Zea mays); [12]
  Corn plant response rating: 30
Corn (Zea mays); [13]
  Plant response rating, Corn: 0
Corn (Zea mays); [14]
  Plant response rating, Corn: 10
Rice (Oryza sativa); 250 g ai/ha
  Plant response rating, Rice (0 to 100 scale, 0 is no effect, 100 is complete control): 0
[8]; 250 g ai/ha
  Plant response rating, Sedge, Umbrella (0 to 100 scale, 0 is no effect, 100 is complete control): 100
[9]; 250 g ai/ha
  Plant response rating, Ducksalad (0 to 100 scale, 0 is no effect, 100 is complete control): 85
[10]; 250 g ai/ha
  Plant response rating, Barnyardgrass (0 to 100 scale, 0 is no effect, 100 is complete control): 0

## Cc1nn(-c2ccccc2Cl)nc1C(=O)c1cccc(C(F)(F)F)c1 [Compound 5]
[1]; [11]
  Barnyardgrass plant response rating: 0
[1]; [12]
  Barnyardgrass plant response rating: 0
[1]; [13]
  Plant response rating, Barnyardgrass: 0
[1]; [14]
  Plant response rating, Barnyardgrass: 0
[2]; [11]
  Crabgrass, Large plant response rating: 0
[2]; [12]
  Crabgrass, Large plant response rating: 0
[2]; [13]
  Plant response rating, Crabgrass, Large: 0
[2]; [14]
  Plant response rating, Crabgrass, Large: 0
[3]; [11]
  Foxtail, Giant plant response rating: 0
[3]; [12]
  Foxtail, Giant plant response rating: 0
[3]; [13]
  Plant response rating, Foxtail, Giant: 0
[3]; [14]
  Plant response rating, Foxtail, Giant: 0
[4]; [11]
  Morningglory plant response rating: 0
[4]; [12]
  Morningglory plant response rating: 0
[4]; [13]
  Plant response rating, Morningglory: 0
[4]; [14]
  Plant response rating, Morningglory: 0
[5]; [11]
  Pigweed plant response rating: 10
[5]; [12]
  Pigweed plant response rating: 30
[5]; [13]
  Plant response rating, Pigweed: 0
[5]; [14]
  Plant response rating, Pigweed: 0
[6]; [11]
  Velvetleaf plant response rating: 0
[6]; [12]
  Velvetleaf plant response rating: 0
[6]; [13]
  Plant response rating, Velvetleaf: 0
[6]; [14]
  Plant response rating, Velvetleaf: 0
[7]; [11]
  Wheat plant response rating: 0
[7]; [12]
  Wheat plant response rating: 0
[7]; [13]
  Plant response rating, Wheat: 0
[7]; [14]
  Plant response rating, Wheat: 0
Corn (Zea mays); [11]
  Corn plant response rating: 0
Corn (Zea mays); [12]
  Corn plant response rating: 0
Corn (Zea mays); [13]
  Plant response rating, Corn: 0
Corn (Zea mays); [14]
  Plant response rating, Corn: 0
Rice (Oryza sativa); 250 g ai/ha
  Plant response rating, Rice (0 to 100 scale, 0 is no effect, 100 is complete control): 0
[8]; 250 g ai/ha
  Plant response rating, Sedge, Umbrella (0 to 100 scale, 0 is no effect, 100 is complete control): 0
[9]; 250 g ai/ha
  Plant response rating, Ducksalad (0 to 100 scale, 0 is no effect, 100 is complete control): 0
[10]; 250 g ai/ha
  Plant response rating, Barnyardgrass (0 to 100 scale, 0 is no effect, 100 is complete control): 0

## Cc1nn(-c2ccc(F)cc2)nc1Oc1ccc(F)c(C(F)(F)F)c1 [Compound 56]
[1]; [11]
  Barnyardgrass plant response rating: 10
[1]; [12]
  Barnyardgrass plant response rating: 30
[1]; [13]
  Plant response rating, Barnyardgrass: 0
[1]; [14]
  Plant response rating, Barnyardgrass: 80
[2]; [11]
  Crabgrass, Large plant response rating: 50
[2]; [12]
  Crabgrass, Large plant response rating: 80
[2]; [13]
  Plant response rating, Crabgrass, Large: 90
[2]; [14]
  Plant response rating, Crabgrass, Large: 100
[3]; [11]
  Foxtail, Giant plant response rating: 20
[3]; [12]
  Foxtail, Giant plant response rating: 80
[3]; [13]
  Plant response rating, Foxtail, Giant: 30
[3]; [14]
  Plant response rating, Foxtail, Giant: 100
[4]; [13]
  Plant response rating, Morningglory: 0
[4]; [14]
  Plant response rating, Morningglory: 10
[5]; [11]
  Pigweed plant response rating: 100
[5]; [12]
  Pigweed plant response rating: 100
[5]; [13]
  Plant response rating, Pigweed: 30
[5]; [14]
  Plant response rating, Pigweed: 90
[6]; [11]
  Velvetleaf plant response rating: 40
[6]; [12]
  Velvetleaf plant response rating: 90
[6]; [13]
  Plant response rating, Velvetleaf: 0
[6]; [14]
  Plant response rating, Velvetleaf: 10
[7]; [11]
  Wheat plant response rating: 10
[7]; [12]
  Wheat plant response rating: 20
[7]; [13]
  Plant response rating, Wheat: 0
[7]; [14]
  Plant response rating, Wheat: 10
Corn (Zea mays); [11]
  Corn plant response rating: 10
Corn (Zea mays); [12]
  Corn plant response rating: 20
Corn (Zea mays); [13]
  Plant response rating, Corn: 0
Corn (Zea mays); [14]
  Plant response rating, Corn: 10
Rice (Oryza sativa); 250 g ai/ha
  Plant response rating, Rice (0 to 100 scale, 0 is no effect, 100 is complete control): 40
[8]; 250 g ai/ha
  Plant response rating, Sedge, Umbrella (0 to 100 scale, 0 is no effect, 100 is complete control): 80
[9]; 250 g ai/ha
  Plant response rating, Ducksalad (0 to 100 scale, 0 is no effect, 100 is complete control): 80
[10]; 250 g ai/ha
  Plant response rating, Barnyardgrass (0 to 100 scale, 0 is no effect, 100 is complete control): 30

## COc1nn(-c2ccc(F)cc2F)nc1Cc1ccnc(C(F)(F)F)c1 [Compound 165]
[1]; [11]
  Plant response rating, Barnyardgrass: 40
[1]; [15]
  Barnyardgrass plant response rating: 90
[1]; [16]
  Plant response rating, Barnyardgrass: 30
[1]; [17]
  Plant response rating, Barnyardgrass: 100
[2]; [11]
  Plant response rating, Crabgrass, Large: 70
[2]; [15]
  Crabgrass, Large plant response rating: 90
[2]; [16]
  Plant response rating, Crabgrass, Large: 100
[2]; [17]
  Plant response rating, Crabgrass, Large: 100
[3]; [11]
  Plant response rating, Foxtail, Giant: 60
[3]; [15]
  Foxtail, Giant plant response rating: 90
[3]; [16]
  Plant response rating, Foxtail, Giant: 90
[3]; [17]
  Plant response rating, Foxtail, Giant: 100
[4]; [11]
  Plant response rating, Morningglory: 60
[4]; [15]
  Morningglory plant response rating: 80
[5]; [11]
  Plant response rating, Pigweed: 100
[5]; [15]
  Pigweed plant response rating: 100
[5]; [16]
  Plant response rating, Pigweed: 100
[5]; [17]
  Plant response rating, Pigweed: 100
[6]; [11]
  Plant response rating, Velvetleaf: 40
[6]; [15]
  Velvetleaf plant response rating: 70
[6]; [16]
  Plant response rating, Velvetleaf: 0
[6]; [17]
  Plant response rating, Velvetleaf: 10
[7]; [11]
  Plant response rating, Wheat: 20
[7]; [15]
  Wheat plant response rating: 30
[7]; [16]
  Plant response rating, Wheat: 0
[7]; [17]
  Plant response rating, Wheat: 0
Corn (Zea mays); [11]
  Plant response rating, Corn: 20
Corn (Zea mays); [15]
  Corn plant response rating: 30
Corn (Zea mays); [16]
  Plant response rating, Corn: 0
Corn (Zea mays); [17]
  Plant response rating, Corn: 10
Rice (Oryza sativa); 125 g ai/ha
  Plant response rating, Rice (0 to 100 scale, 0 is no effect, 100 is complete control): 20
[8]; 125 g ai/ha
  Plant response rating, Sedge, Umbrella (0 to 100 scale, 0 is no effect, 100 is complete control): 70
[9]; 125 g ai/ha
  Plant response rating, Ducksalad (0 to 100 scale, 0 is no effect, 100 is complete control): 40
[10]; 125 g ai/ha
  Plant response rating, Barnyardgrass (0 to 100 scale, 0 is no effect, 100 is complete control): 10
